# In US6344571B2, “Water soluble analogs and prodrugs of paclitaxel” (Pharmachemie B.V., priority 1998, dated 2002):
# Entries after “also recorded” stand apart in the source; their conditions may differ. Where two headings read alike, the source gives them in different places.
# Assays:
# EVSA-T Breast cancer = assay: Antiproliferative SRB assay, EVSA-T; type: cell-based, human; conditions: 37° C. 72 h, vs untreated cells
# Protocol: (§1) Determination of the IC50-values for the new synthesized prodrugs have been determined with a variety of cell lines and have been compared with the IC50-value of paclitaxel 1 (see table II) Compounds 1, 5, 8, 11,:
# (§2) The following human tumor cell lines were used:
# (§3) MCF7 is estrogen receptor ER+/Progesterone receptor PgR+ and EVSA-T is ER-/PgR-.
# (§4) Prior to the experiments a myocoplasma test was carried out on all cell lines and found to be negative. All cell lines, except ETSA-T, were maintained in a continuous logarithmic culture in RPMI medium with Hepes and Phenol red supplemented with 10% bovine calf serum (BCS), penicillin 111 IU/ml, streptomycin 111 μg/ml, gentamycin 46 μg/ml and insulin 10.6 μg/ml. EVSA-T was maintained in DMEM with 5% BCS and antibiotics as described. The cells were mildly trypsinized for passage and for use in experiments.
# (§5) The compounds of this invention were dissolved to a concentration of 177147 ng/ml as follows:
# (§6) On day 0, 200 μl of trypsinized tumor cells (2*10^3 cells/well) were plated in 96-wells flatbottom microtiter plates (Costar, no. 3799, Badhoevedorp, The Netherlands). The plates were preincubated 24 hr at 37° C., 5% CO2 to allow the cells to adhere.
# (§7) […] The final volume of column 3 was adjusted to 200 μl with PBS. Column 2 was used for the blank. To column 1 PBS was added to diminish interfering evaporation.
# (§8) […] Subsequently the cells were fixed with 10% trichloroacetic acid in Milli Q water (Millipore, Etten Leur, The Netherlands) and placed at 4° C. for one hour.
# (§9) After five washings with tap water, the cells were stained for at least 15 min. with 0.4% SRB, dissolved in 1% acetic acid, and subsequently washed with 1% acetic acid to remove the unbound stain. The plates were air dried and the bound protein was dissolved by using 150 μl 10 mmol/l tris base. The absorbance was read at 540 nm using an automatic microplate reader (Titertec, Flow Laboratories LtD., Irvine, Scotland). Data were used for construction of concentration-response curves and determination of the IC50-value.
# M19 MEL Melanoma = assay: Antiproliferative SRB assay, M19 MEL; type: cell-based, human; conditions: vs untreated cells
# Excerpt: as §1, §2
# (§10) Cell lines WIDR, M19 MEL, A498 and IGROV belong to the currently used anti-cancer screening panel of the National Cancer Institute, USA (Skeham et al., J. Nat. Cancer Inst. 85: 1107-1112, 1990).
# as §4, §5, §6, §7, §8, §9
# MCF7 Breast cancer = assay: Antiproliferative SRB assay, MCF7; type: cell-based, human; conditions: 37° C. 72 h, vs untreated cells
# Protocol: as §1, §2, §3, §4, §5, §6, §7, §8, §9
# A498 Renal cancer = assay: Antiproliferative SRB assay, A498; type: cell-based, human; conditions: 37° C. 72 h, vs untreated cells
# Excerpt: as §1, §2, §10, §4, §5, §6, §7, §8, §9
# [1] = Stability in human plasma, degradation to paclitaxel; type: in vitro ADME; conditions: for T1/2 Human Plasma: human plasma (heparin), 37° C., time in which 50% of the analog is degraded to paclitaxel
# Protocol: (§11) The paclitaxel prodrugs (5, 6, 8, 11) were dissolved in water, sonicated and centrifuged. 100 μl of the above fluid was mixed with 400 μl of plasma (heparin) or PBS-buffer (pH7.4), respectively, in such way that the concentration of the prodrug was about 0.5 mg/mL. The plasma or PBS-buffer, respectively, was incubated at 37° C. and on different points in time (T=0, 0.5, 1, 4, 20, 48 hours) 50 μl was extracted with 150 μl of EtOAc. After mixing for 2 minutes (using a vortex), this mixture was centrifuged (2 minutes, 13000 g) and 100 μl EtOAc was evaporated (30 minutes, in vacuo). The (pro)drugs were dissolved in 50 μl eluent and analyzed by HPLC (Longnecker, S. M. Cancer Treat Rep. 1987, 71, 53-59). The efficiency for the extraction of paclitaxel was about 80%.
# WIDR Colon cancer = assay: Antiproliferative SRB assay, WIDR; type: cell-based, human; conditions: vs untreated cells
# Excerpt: as §1, §2, §10, §4, §5, §6, §7, §8, §9
# [2] = Stability in PBS-buffer (pH 7.4), degradation to paclitaxel; type: physicochemical; conditions: for stability in PBS buffer: PBS-buffer pH 7.4
# Protocol: as §11, with “The plasma or PBS-buffer, respectively, was incubated at 37° C. and on different points in time (T=0, 0.5, 1, 4, 20, 48 hours) 50 μl was extracted with 150 μl of EtOAc.” left out
# [3] = Water solubility (suspension in water or PBS-buffer, HPLC)
# Protocol: Water Solubility: Paclitaxel or paclitaxel prodrugs (5, 6, 8, 11) were suspended in water or PBS-buffer (pH 7.4) until a concentration was reached of 2 mg/ml. The suspensions were sonicated for 15 minutes and centrifuged (13000 g) for 10 minutes (Nicolaou, K. C. et al. Nature 1993, 364, 464-466). The above fluid was analyzed, using HPLC. The paclitaxel (prodrug) concentration was determined using paclitaxel standards in methanol.
# HPLC: Rheodyne injection valve (20 μl loop); Lichrospher 5RP18 column (200×3 mm, Chrompack); UV-detector (Model 759A, Applied Biosystems); eluent: CH3CN/MeOH/H2O: 5/1/4 in 10 mM NH4OAc (pH 5.0) (Willey, T. A. J. Chromatography 1993, 621, 231-238). The detection of the (pro)drugs was performed at 226 nm, where it is supposed that the extinction coefficients of paclitaxel and paclitaxel prodrugs are equal. The concentrations were determined by measuring the relative area of paclitaxel or the paclitaxel prodrugs.
# IGROV Ovarian cancer = assay: Antiproliferative SRB assay, IGROV; type: cell-based, human; conditions: 37° C. 72 h, vs untreated cells
# Excerpt: as §1, §2, §10, §4, §5, §6, §7, §8, §9
# H226 = assay: Antiproliferative SRB assay, H226; type: cell-based, human; conditions: vs untreated cells
# Protocol: as §1, §2
# […] non small cell lung cancer
# as §4, §5, §6, §7, §8, §9
# OVCAR-3 cells = assay: In vitro antiproliferative effects, OVCAR-3; type: cell-based, human; conditions: for IC50: 37° C. 72 h, vs untreated cells
# Protocol: The human tumor cell line OVCAR-3 was used. OVCAR is an ovarium carcinoma.
# In vitro antiproliferative effects: paclitaxel or paclitaxel prodrugs were dissolved in DMSO to give a concentration of 5 mM. Concentrations were verified by measuring the OD at 226 nm. The antiproliferative effects of drugs and prodrugs were determined with the use of OVCAR-3 cells. Cells in supplemented tissue culture medium (DMEM, 10% fetal calf serum with 50 IU/ml penicillin and 50 microgram/ml streptomycin) were seeded in triplicate in 96-well culture plates (5000/well, 100 microliter). After 24 h, 100 microliter of culture medium containing drug or prodrug was added to give final concentrations ranging from 1 picomolar to 10 micromolar.
# The cells were incubated for an additional 72 h, fixed with 10% trichoroacetic acid and stained with sulforhodamine B. The absorbance at 540 nm was read and the antiproliferative effects were expressed as IC50 values, inhibition when compared with control cell growth (Houba et al. Bioconj. Chem. 1996, 7, 606-611).
# human tumor cell lines = assay: Cytotoxic activity in human tumor cell lines, overall comparison with paclitaxel; type: cell-based
# Protocol: as §1, §2, §6
# On day 2, 100 μl of the highest drug concentration was added to the wells of column 12 and from there diluted 3-fold to column 3 by serial transfer of 100 μl using an 8 channel micropipette. The final volume of column 3 was adjusted to 200 μl with PBS. Column 2 was used for the blank. To column 1 PBS was added to diminish interfering evaporation.
# On day 7 the incubation was terminated by washing the plates twice with PBS. […]
# After five washings with tap water, the cells were stained for at least 15 min. with 0.4% SRB, dissolved in 1% acetic acid, and subsequently washed with 1% acetic acid to remove the unbound stain. […] The absorbance was read at 540 nm using an automatic microplate reader (Titertec, Flow Laboratories LtD., Irvine, Scotland). […]
Compound,IC50 EVSA-T (EVSA-T Breast cancer),IC50 M19 MEL (M19 MEL Melanoma),IC50 MCF7 (MCF7 Breast cancer),IC50 A498 (A498 Renal cancer),T1/2 Human Plasma [1],IC50 WIDR (WIDR Colon cancer),stability in PBS buffer [2],"paclitaxel detected in PBS-buffer after 24 hours ([2]; PBS-buffer pH 7.4, after 24 hours)",Water Solubility [3],IC50 IGROV (IGROV Ovarian cancer),IC50 H226 (H226),degradation to paclitaxel in human plasma [1],"amount degraded to paclitaxel within 4 hours ([1]; within 4 hours, matrix not printed in the sentence (human plasma per Table I))",activity against OVCAR-3 cells compared to paclitaxel (OVCAR-3 cells),IC50 (OVCAR-3 cells),water solubility compared with paclitaxel [3],water solubility relative to paclitaxel (times more watersoluble) [3],cytotoxic activity compared to paclitaxel (human tumor cell lines),"Water Solubility ([3]; suspended to 2 mg/ml, sonicated 15 minutes, centrifuged, HPLC)"
"CC(=O)O[C@H]1C(=O)[C@@]2(C)[C@H]([C@H](OC(=O)c3ccccc3)[C@]3(O)C[C@H](OC(=O)[C@H](OC(=O)CC(O)C(=O)O)[C@@H](NC(=O)c4ccccc4)c4ccccc4)C(C)=C1C3(C)C)[C@]1(OC(C)=O)CO[C@@H]1C[C@@H]2O (stereo partly drawn) [Compound 5, 2′-Malylpaclitaxel]",<0.003 µg/mL,0.003 µg/mL,<0.003 µg/mL,0.039 µg/mL,20 h,<0.003 µg/mL,sufficient stability; also recorded: stable,only traces,200 µg/mL,<0.003 µg/mL,0.01 µg/mL,–,–,–,–,–,–,–,–
"CC(=O)O[C@H]1C(=O)[C@@]2(C)[C@H]([C@H](OC(=O)c3ccccc3)[C@]3(O)C[C@H](OC(=O)[C@H](OC(=O)CC(O)C(=O)[O-])[C@@H](NC(=O)c4ccccc4)c4ccccc4)C(C)=C1C3(C)C)[C@]1(OC(C)=O)CO[C@@H]1C[C@@H]2O.[Na+] (stereo partly drawn) [Compound 6, Sodium salt of 2′-malylpaclitaxel]",<0.003 µg/mL,<0.003 µg/mL,<0.003 µg/mL,<0.003 µg/mL,4 h,<0.003 µg/mL,sufficient stability,–,600 µg/mL,0.233 µg/mL,<0.003 µg/mL,fast hydrolysis rate,about 500,comparable,0.8 nM,Best water solubility,sixty,–,–
"CC(=O)OC1C(=O)C2(C)C(OC(=O)CC(O)C(=O)O)CC3OCC3(OC(C)=O)C2C(OC(=O)c2ccccc2)C2(O)CC(OC(=O)C(OC(=O)CC(O)C(=O)O)C(NC(=O)c3ccccc3)c3ccccc3)C(C)=C1C2(C)C (stereo not drawn) [Compound 8, 2′, 7-Bis(malyl)paclitaxel]",0.059 µg/mL,0.311 µg/mL,0.069 µg/mL,0.436 µg/mL,no pacl.^b,0.167 µg/mL,sufficient stability; also recorded: no degradation to the parent drug,–,500 µg/mL,0.049 µg/mL,0.241 µg/mL,no degradation to the parent drug,–,–,–,–,–,reduced cytotoxic activity,–
"CC(=O)O[C@H]1C(=O)[C@]2(C)[C@@H](OC(=O)CC(O)C(=O)O)C[C@H]3OC[C@@]3(OC(C)=O)[C@H]2[C@H](OC(=O)c2ccccc2)[C@]2(O)C[C@H](OC(=O)[C@H](O)[C@@H](NC(=O)c3ccccc3)c3ccccc3)C(C)=C1C2(C)C (stereo partly drawn) [Compound 11, 7-Malylpaclitaxel]",0.3 µg/mL,1.344 µg/mL,0.39 µg/mL,1.435 µg/mL,no pacl.^b,0.589 µg/mL,sufficient stability; also recorded: no degradation to the parent drug,–,3 µg/mL,0.241 µg/mL,0.706 µg/mL,no degradation to the parent drug,–,–,–,–,–,reduced cytotoxic activity,–
"CC(=O)O[C@H]1C(=O)[C@@]2(C)[C@H]([C@H](OC(=O)c3ccccc3)[C@]3(O)C[C@H](OC(=O)[C@H](O)[C@@H](NC(=O)c4ccccc4)c4ccccc4)C(C)=C1C3(C)C)[C@]1(OC(C)=O)CO[C@@H]1C[C@@H]2O [paclitaxel, Paclitaxel]",<0.003 µg/mL,<0.003 µg/mL,<0.003 µg/mL,0.005 µg/mL,–,<0.003 µg/mL,–,–,–,0.033 µg/mL,<0.003 µg/mL,–,–,–,0.25 nM,–,–,–,10 µg/mL
